Measurements taken from patent publication US20230014181A1, “CULTURE SYSTEM AND METHODS FOR IMPROVED MODELING OF NEUROLOGICAL CONDITIONS” (Genentech, Inc., priority 2021, published 2023).
Counter-ions that a name gives are not always drawn. Like-named read-outs stand apart in the source and are kept apart here. Where a SMILES comes first, the peptide text is derived from it. [ ]: non-standard residue; d: D form. Nle = CCCC[C@H](N)C(=O)O

Columns and labels:
[1] = system: human iPSC neurons, astrocytes and microglia treated with 5 μM sAβ42s; assay: Focused small molecule screen, triple culture (neuron, astrocyte, microglia), rescue from sAβ42s toxicity; format: cell-based
Description: (§1) FIGS. 11A-11D show synapse % rescue versus MAP2% rescue (FIGS. 11A-11B) and beta III tubulin % rescue versus MAP2% rescue (FIGS. 11C-11D), in neurons and astrocytes (FIGS. 11A and 11C) or neurons, astrocytes, and microglia (FIGS. 11B and 11D) treated with 5 μM sAβ42s and small molecules from a focused screen of known neuroprotective agents at multiple concentrations (50 μM, 25 μM, 12.5 μM and 6.25 μM (double culture), 50 μM, 12.5 μM, 3.1 μM and 0.78 μM (triple culture). Small molecules that prevented toxicity in dendrites (MAP2), synapses (Synapsin 1/2), cell count (CUX2), or axons ([…]) at or above 30% were considered hits (red dotted line).
Frozen cells were thawed and immediately seeded at a density of 8,000 cells/well of a 384-well plate onto 8-week old neuron-astrocyte co-culture in Microglia media (BrainPhys™ neuronal media (Stem Cell Technologies) supplemented with 1× B27 with vitamin A, 1×N2 Plus Media Supplement (R&D Systems), 20 ng/mL BDNF, 20 ng/mL GDNF, 1 mM creatine, 200 nM L-ascorbic acid, 1 μg/mL mouse laminin, 0.5 mM GlutaMAX™ (Thermofisher), 0.5× penicillin-streptomycin, 1× normocin, 5 ng/mL TGF-β, 100 ng/mL human IL-34, 1.5 μg/mL cholesterol, 1 ng/mL gondoic acid, 100 ng/mL oleic acid, 460 μM thioglycerol, 1× insulin-transferrin-selenium, 25 ng/mL rhM-CSF, 5.4 μg/mL human insulin solution).
(§2) In double (neuron, astrocyte) and triple (neuron, astrocyte, microglia) cultures, each small molecule listed in Table 1 was tested in the AD model paradigm at up to four concentrations. Molecules that characterized ≥30% rescue in any of the four measurements of dendrites area (MAP2), synapses count (synapsin 1/2), or cell count (CUX2), or axon area (Beta III Tubulin; “BT3”)) were classified as hits (FIGS. 11A-11D, Table 2, and Table 3).

[2] = system: human iPSC neurons and astrocytes treated with 5 μM sAβ42s; assay: Focused small molecule screen, double culture (neuron, astrocyte), rescue from sAβ42s toxicity, high content imaging; format: cell-based; settings: for % B3T rescue / % Cux2 rescue / % MAP2 rescue / % Synapse rescue / percent rescue from sAβ42s toxicity at 50 µM / percent rescue from sAβ42s toxicity at 25 µM: double culture, 5 μM sAβ42s; for percent rescue from sAβ42s toxicity at 50 µM / percent rescue from sAβ42s toxicity at 25 µM: Homo sapiens, iPSC
Description: as §1
Neurons from both NSC lines were evaluated by immunofluorescence staining. Briefly, cells were fixed with 4% PFA and 4% sucrose at room temperature for 20 minutes using Bravo automation. Fixed cells were then washed 2 times with PBS using Biotek 406 microplate washer (Beckman Coulter), followed by permeabilization and blocking by incubation with a solution containing 1×PBS, 0.1% Triton X-100, 2% donkey serum, and 1% BSA at room temperature for 30 minutes. Blocking solution was removed and cells were incubated with primary antibodies in blocking solution overnight at 4° C. After washing 6 times with PBS on Biotek 406 cell plate washer (Beckman Coulter), cells were then incubated with fluorophore-conjugated secondary antibodies for 1 hour at room temperature in the dark to avoid photobleaching. Cells were then washed 6 more times in with PBS before imaging. Fluorescent images were captured using IN Cell 6000 confocal microscope (GE Healthcare Life Sciences). The image analysis was performed with IN Cell 6000 analysis software.
Prior to experimentation, media volume in wells containing neurons was equalized with liquid handling automation (Bravo) in order to ensure precise control of concentrations. All Aβ42 oligomers, anti-Aβ, small molecules, inflammatory cytokines were prepared at 10× concentration and added to Neuronal Culture Media at an appropriate volume. For the repeated dosing experiments, the media were refreshed 50% at each dosing first, before adding Aβ42 oligomers, and/or anti-Aβ antibody at the specified final concentration.
as §2

[3] = 50 μM compound, read-out: % B3T rescue
[4] = 50 μM compound, read-out: % Cux2 rescue
[5] = 50 μM compound, read-out: % MAP2 rescue
[6] = 50 μM compound, read-out: % Synapse rescue

SMILES | % B3T rescue ([1]; 12.50 μM compound) | % MAP2 rescue ([1]; 12.50 μM compound) | % Synapse rescue ([1]; 12.50 μM compound) | % B3T rescue ([1]; 50.00 μM compound) | % MAP2 rescue ([1]; 50.00 μM compound) | % Synapse rescue ([1]; 50.00 μM compound) | % B3T rescue ([2]; 50 μM compound) | % Cux2 rescue ([2]; 50 μM compound) | % MAP2 rescue ([2]; 50 μM compound) | % Synapse rescue ([2]; 50 μM compound) | % B3T rescue ([2]; 6.25 μM compound) | % Cux2 rescue ([2]; 6.25 μM compound) | % MAP2 rescue ([2]; 6.25 μM compound) | % Synapse rescue ([2]; 6.25 μM compound) | % B3T rescue ([2]; 12.5 μM compound) | % Cux2 rescue ([2]; 12.5 μM compound) | % MAP2 rescue ([2]; 12.5 μM compound) | % Synapse rescue ([2]; 12.5 μM compound) | % B3T rescue ([2]; 25 μM compound) | % Cux2 rescue ([2]; 25 μM compound) | other results
N#C/C(=C\c1ccc(O)c(O)c1)C(=O)OCCc1cccs1 [2-TEDC] | 43% | 25% | 17% | 73% | 48% | 40% | 31% | 16% | 22% | 10% | – | – | – | – | – | – | – | – | – | – | % B3T rescue ([1]; 3.13 μM compound): 40%; % MAP2 rescue ([1]; 3.13 μM compound): 22%; % Synapse rescue ([1]; 3.13 μM compound): 15%
O=c1cc(-c2ccccc2)oc2c(O)c(O)ccc12 [7,8-Dihydroxyflavone] | – | – | – | – | – | – | – | – | – | – | – | – | – | – | – | – | – | – | – | – | percent rescue from sAβ42s toxicity at 50 µM [2, 3]: -14%; percent rescue from sAβ42s toxicity at 50 µM [2, 4]: 42%; percent rescue from sAβ42s toxicity at 50 µM [2, 5]: 6%; percent rescue from sAβ42s toxicity at 50 µM [2, 6]: -2%
Cc1ccc2c(c1)C(=O)[C@]1(O)CCN(c3ccccc3)C1=N2 [(S)-(−)-Blebbistatin] | – | – | – | 36% | 24% | 20% | 49% | 23% | 34% | 12% | 41% | 10% | 21% | 19% | 34% | 3% | 25% | 15% | 38% | 5% | % MAP2 rescue ([2]; 25 μM compound): 34%; % Synapse rescue ([2]; 25 μM compound): 13%
O=C(Nc1cccc(Br)c1)c1cccc(S(=O)(=O)N2CCCCCC2)c1 [AK 7] | 81% | 53% | 42% | 56% | 28% | 17% | 42% | 0% | −17% | −5% | – | – | – | – | – | – | – | – | – | – | % B3T rescue ([1]; 0.78 μM compound): 79%; % MAP2 rescue ([1]; 0.78 μM compound): 1%; % Synapse rescue ([1]; 0.78 μM compound): 3%; % B3T rescue ([1]; 3.13 μM compound): 77%; % MAP2 rescue ([1]; 3.13 μM compound): 18%; % Synapse rescue ([1]; 3.13 μM compound): 13%
N#CC(c1ccnc(NCCc2cccnc2)n1)c1nc2ccccc2s1 (stereo not drawn) [AS601245] | 26% | 74% | 26% | 44% | 95% | 45% | −16% | 123% | 64% | 19% | 14% | 9% | 49% | 37% | 20% | 13% | 67% | 57% | 11% | 32% | % B3T rescue ([1]; 3.13 μM compound): 18%; % MAP2 rescue ([1]; 3.13 μM compound): 54%; % Synapse rescue ([1]; 3.13 μM compound): 17%; % MAP2 rescue ([2]; 25 μM compound): 73%; % Synapse rescue ([2]; 25 μM compound): 36%; protection in focused screens ([2]; double and triple cultures): protective to a lesser extent
CCCC[C@@H](C=O)NC(=O)[C@H](CC(C)C)NC(=O)[C@H](CC(C)C)NC(C)=O [Ac-Leu-Leu-Nle-CHO] (Ac-Leu-Leu-[Nle]-aldehyde) | 44% | 48% | 18% | – | – | – | 0% | 78% | 23% | 2% | 14% | 85% | 31% | 0% | 0% | 87% | 18% | −4% | −11% | 87% | % B3T rescue ([1]; 0.78 μM compound): 38%; % MAP2 rescue ([1]; 0.78 μM compound): 21%; % Synapse rescue ([1]; 0.78 μM compound): 14%; % B3T rescue ([1]; 3.13 μM compound): 57%; % MAP2 rescue ([1]; 3.13 μM compound): 55%; % Synapse rescue ([1]; 3.13 μM compound): 38%; % MAP2 rescue ([2]; 25 μM compound): 20%; % Synapse rescue ([2]; 25 μM compound): −5%
Cc1ccc(S(=O)(=O)/C=C/C#N)cc1 [BAY 11-7082] | – | – | – | 44% | 21% | −1% | – | – | – | – | 38% | 70% | 34% | −2% | 31% | 85% | 36% | −3% | 14% | 82% | % MAP2 rescue ([2]; 25 μM compound): 17%; % Synapse rescue ([2]; 25 μM compound): −13%
CC1=NN(c2ccc(C(=O)O)cc2)C(=O)/C1=C\c1ccc(-c2cc(C)c(C)cc2[N+](=O)[O-])o1 [C 646] | 42% | 41% | 38% | 53% | 37% | 39% | 49% | 25% | 54% | 19% | – | – | – | – | – | – | – | – | – | – | % B3T rescue ([1]; 0.78 μM compound): 27%; % MAP2 rescue ([1]; 0.78 μM compound): 37%; % Synapse rescue ([1]; 0.78 μM compound): 28%
CN(C)[C@@H]1C(O)=C(C(N)=O)C(=O)[C@@]2(O)C(O)=C3C(=O)c4c(O)ccc(Cl)c4[C@@H](O)[C@H]3C[C@@H]12 [Demeclocydine hydrochloride, Demeclocycline hydrochloride] | – | – | – | – | – | – | – | – | – | – | – | – | – | – | – | – | – | – | – | – | percent rescue from sAβ42s toxicity at 25 µM ([2]; 25 μM compound, read-out: % B3T rescue): 35%; percent rescue from sAβ42s toxicity at 25 µM ([2]; 25 μM compound, read-out: % Cux2 rescue): 6%; percent rescue from sAβ42s toxicity at 25 µM ([2]; 25 μM compound, read-out: % MAP2 rescue): 23%; percent rescue from sAβ42s toxicity at 25 µM ([2]; 25 μM compound, read-out: % Synapse rescue): 15%; percent rescue from sAβ42s toxicity at 50 µM [2, 3]: 63%; percent rescue from sAβ42s toxicity at 50 µM [2, 4]: 33%; percent rescue from sAβ42s toxicity at 50 µM [2, 5]: 39%; percent rescue from sAβ42s toxicity at 50 µM [2, 6]: 27%
O=C1Nc2ccc(I)cc2/C1=C/c1cc(Br)c(O)c(Br)c1 [GW 5074] | – | – | – | – | – | – | 48% | 162% | 54% | 8% | 16% | 95% | 17% | 8% | 9% | 76% | 12% | 6% | 14% | 115% | % MAP2 rescue ([2]; 25 μM compound): 19%; % Synapse rescue ([2]; 25 μM compound): 8%
CN1C(=O)C(Cc2c[nH]c3ccccc23)NC1=S (stereo not drawn) [Necrostatin-1] | – | – | – | – | – | – | 11% | 10% | 37% | 15% | – | – | – | – | – | – | – | – | – | – | –
